The source of these data is US7674823B2, “DNA-PK inhibitors” (Cancer Research Technology Limited, priority 2001, dated 2010).

The test system of data set [1] is PI 3-kinase (p110α/p85α). Nature of the data set: PI 3-kinase inhibition assay. Conditions: selectivity ratio from the IC50s for PI 3-kinase and DNA-PK. In kind it is biochemical. An excerpt:
(§1) In order to assess the inhibitory action of the compounds against PI 3-kinase in vitro, the following assay was used to determine IC50 values.
(§2) Baculoviral recombinant GST-fused PI 3-kinase (p110α/p85α) was purified from Sf9 insect cells using GSH-sepharose affinity chromatography as described (Wymann, M. T et al., (1996) Wortmannin inactivates phosphoinositide 3-kinase by covalent modification of Lys-802, a residue involved in the phosphate transfer reaction. Mol. Cell Biol. 16:1722-1733). PI 3-kinase (1 μl) was diluted in reaction buffer (89 μl of 50 mM Hepes pH 7.5, 150 mM NaCl, 0.1 mM Sodium Orthovanadate, containing 20 μg of phosphatidylinositol) and varying concentrations of inhibitor compound added. […] Reactions were incubated for a further 20 minutes at 37° C., before quenching with the addition of 400 μl of chloroform/methanol (1:1). Reactions were acidified by the addition of 200 μl of 1M HCl, before separation of the organic and aqueous phases by centrifugation at 10,000 g for 30 seconds. The organic phase was transferred to a fresh tube and washed twice with 150 μl of 1M hydrochloric acid/methanol (1:1), discarding the aqueous phase. The washed reaction product was then placed in a white 96-well plate with 100 μl of scintillation fluid and transferred to a TopCount NXT for scintillation counting. Counts per minute, following a one minute counting time, were recorded for each reaction. The inhibition of PI 3-kinase activity by compounds was calculated as described above for the DNA-PK assay.
(§3) The selectivity was determined by the following equation: […]

The target of data set [2] is T1, ATM protein (Homo sapiens, UniProt Q13315).
T1 construct: ATM protein was immunoprecipitated from HeLa cell nuclear extract; endogenous in cells; host or cells: HeLa cell nuclear extract (immunoprecipitate)
Nature of the data set: ATM inhibition assay (immunoprecipitated ATM, GSTp53N66 substrate). In kind it is biochemical. As for the experimental part: (§4) In order to assess the inhibitory action of the compounds against ATM in vitro, the following assay was used to determine IC50 values.
(§5) ATM protein was immunoprecipitated from HeLa cell nuclear extract using rabbit polyclonal antisera raised to the C-terminal ˜500 amino-acid residues of the human ATM protein. The immunoprecipitation was performed according to the methodology described by Banin, S. et al. (1998) Enhanced phosphorylation of p53 by ATM in response to DNA damage. Science 281:1674-1677. 10 μl of immunoprecipitated ATM in Buffer C (50 mM Hepes, pH 7.4, 6 mM MgCl2, 150 mM NaCl, 0.1 mM sodium orthovanadate, 4 mM MnCl2, 0.1 mM dithiothreitol, 10% glycerol) was added to 32.5 μl of buffer C containing 1 μg of the ATM substrate GSTp53N66 in a V-bottomed 96 well polypropylene plate. The GSTp53N66 substrate is the amino terminal 66 amino acid residues of human wild type p53 fused to glutathione S-transferase. ATM phosphorylates p53 on the residue serine 15 (Banin, S. et al. (1998) Enhanced phosphorylation of p53 by ATM in response to DNA damage. Science 281:1674-1677). Varying concentrations of inhibitor were then added. […] After 10 minutes of incubation at 37° C., the reactions were initiated by the addition of 5 μl of 50 μM Na-ATP. After 1 h with shaking at 37° C., 150 μl of phosphate buffered saline (PBS) was added to the reaction and the plate centrifuged at 1500 rpm for 10 minutes. 5 μl of the reaction was then transferred to a 96 well opaque white plate containing 45 μl of PBS to allow the GSTp53N66 substrate to bind to the plate wells. The plate was covered and incubated at room temperature for 1 h with shaking before discarding the contents. The plate wells were washed twice by the addition of PBS prior to the addition of 3% (w/v) bovine serum albumin (BSA) in PBS. The plate was incubated at room temperature for 1 h with shaking before discarding the contents and washing twice with PBS. To the wells, 50 μl of a 1:10,000 dilution of primary phosphoserine-15 antibody (Cell Signaling Technology, #9284L) in 3% BSA/PBS was added to detect the phosphorylation event on the serine 15 residue of p53 elicited by the ATM kinase. After 1 h of incubation at room temperature with shaking, the wells were washed four times with PBS prior to the addition of an anti-rabbit HRP conjugated secondary antibody (Pierce, 31462) with shaking for 1 h at room temperature. The wells were then washed four times with PBS before the addition of chemiluminescence reagent (NEN Renaissance, NEL105). The plate was then shaken briefly, covered with a transparent plate seal and transferred to a TopCount NXT for chemiluminescent counting. Counts per second, following a one second counting time, were recorded for each reaction. The inhibition of ATM activity by compounds was calculated as described above for the DNA-PK assay.
as §3

Data set [3] deals with ATM protein. Described as above. The class given is biochemical, human. As to conditions: selectivity ratio from the IC50s for ATM and DNA-PK. As for the experimental part:
as §4, §5, §3

Data set [4] concerns HeLa cells. The data set can be described thus: Enhancement Ratio: cell growth inhibition (SRB assay) after 2 Gy irradiation. The class given is cell-based. As to conditions: inhibitor 25 μM. As for the experimental part: DNA-PK inhibitors were used at a fixed concentration of 25 micromolar. Radiation was delivered by a Faxitron 43855D X-ray system at a dose rate of 1Gy per minute The Enhancement ratio at 2 Gy irradiation was calculated from the formula: [formula] Cell growth was assessed using the sulforhodamine B (SRB) assay (Skehan, P., Storung, R., Scudiero, R., Monks, […]., Kenny, S. and Boyd, M. R. (1990) New calorimetric cytotoxicity assay for anticancer-drug screening. J. Natl. Cancer Inst. 82:1107-1112). 400 HeLa cells were seeded into each well of a flat-bottomed 48-well microtiter plate in a volume of 200 μl and incubated for 6 h at 37° C. […] Cells were allowed to grow for a further 1 h before irradiation or mock irradiation. Cells untreated with DNA-PK inhibitor or unirradiated were used as a control. Cells treated with DNA-PK inhibitor alone were used to assess the growth inhibition by the DNA-PK inhibitor. Cells were left for a further 16 h before replacing the media and allowing the cells to grow for a further 6 days at 37° C. The media was then removed and the cells fixed with 200 μl of ice cold 10% (w/v) trichloroacetic acid. The plates were incubated at 4° C. for 20 minutes and then washed four times with water. Each well of cells was then stained with 200 μl of 0.4% (w/v) SRB in 1% acetic acid for 20 minutes before washing four times with 1% acetic acid. Plates were then dried for 2 h at room temperature. The dye from the stained cells was solubilized by the addition of 100 μl of 10 mM Tris Base into each well. Plates were gently shaken and left at room temperature for 30 minutes before measuring the optical density at 564 nm on a Microquant microtiter plate reader.

The target of data set [5] is T2, Mammalian DNA-PK, isolated from Hela cell nuclear extract (Homo sapiens, UniProt P78527).
T2 construct: Mammalian DNA-PK, isolated from Hela cell nuclear extract; endogenous in cells; host or cells: HeLa cell nuclear extract (purified per Gell and Jackson 1999)
The data set can be described thus: DNA-PK inhibition assay (33P-ATP, filter binding). The class given is biochemical. The method in brief:
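DNA-PK from HeLa nuclear extract preincubated with compound 10 min at 30 °C, then started with 50 μM Na-ATP final, ^33P-γATP and 30mer dsDNA (10 ng/μl), run 45 min at 30 °C.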

Data set [6] deals with T3, PI 3-kinase (p110α/p85α) (UniProt P32871).
T3 construct: other: GST-fused p110α/p85α
Nature of the data set: PI 3-kinase inhibition assay. The class given is biochemical. Conditions: GST-fused p110α/p85α.
Source text: as §1, §2, §3

Data set [7] concerns cells. Conditions: literature; cited from earlier work.
In data set [8] the target is PI 3-kinase. Conditions: stated to be the same as for DNA-PK; cited from earlier work.
The mark [9] stands for this setting: IC50 of less than about 1 μM and/or % inhibition of more than about 50 at 1 μM, read-out: DNA-PK inhibition IC50 (particular efficacy).
Where [10] appears, read: concentration at which 50% of the enzyme activity is inhibited, read-out: DNA-PK Inhibition IC50.

pIC50: −log10 of the molar value. Read-outs that look alike come from different tables or passages of the source.

T1 sequence (Q13315 whole entry): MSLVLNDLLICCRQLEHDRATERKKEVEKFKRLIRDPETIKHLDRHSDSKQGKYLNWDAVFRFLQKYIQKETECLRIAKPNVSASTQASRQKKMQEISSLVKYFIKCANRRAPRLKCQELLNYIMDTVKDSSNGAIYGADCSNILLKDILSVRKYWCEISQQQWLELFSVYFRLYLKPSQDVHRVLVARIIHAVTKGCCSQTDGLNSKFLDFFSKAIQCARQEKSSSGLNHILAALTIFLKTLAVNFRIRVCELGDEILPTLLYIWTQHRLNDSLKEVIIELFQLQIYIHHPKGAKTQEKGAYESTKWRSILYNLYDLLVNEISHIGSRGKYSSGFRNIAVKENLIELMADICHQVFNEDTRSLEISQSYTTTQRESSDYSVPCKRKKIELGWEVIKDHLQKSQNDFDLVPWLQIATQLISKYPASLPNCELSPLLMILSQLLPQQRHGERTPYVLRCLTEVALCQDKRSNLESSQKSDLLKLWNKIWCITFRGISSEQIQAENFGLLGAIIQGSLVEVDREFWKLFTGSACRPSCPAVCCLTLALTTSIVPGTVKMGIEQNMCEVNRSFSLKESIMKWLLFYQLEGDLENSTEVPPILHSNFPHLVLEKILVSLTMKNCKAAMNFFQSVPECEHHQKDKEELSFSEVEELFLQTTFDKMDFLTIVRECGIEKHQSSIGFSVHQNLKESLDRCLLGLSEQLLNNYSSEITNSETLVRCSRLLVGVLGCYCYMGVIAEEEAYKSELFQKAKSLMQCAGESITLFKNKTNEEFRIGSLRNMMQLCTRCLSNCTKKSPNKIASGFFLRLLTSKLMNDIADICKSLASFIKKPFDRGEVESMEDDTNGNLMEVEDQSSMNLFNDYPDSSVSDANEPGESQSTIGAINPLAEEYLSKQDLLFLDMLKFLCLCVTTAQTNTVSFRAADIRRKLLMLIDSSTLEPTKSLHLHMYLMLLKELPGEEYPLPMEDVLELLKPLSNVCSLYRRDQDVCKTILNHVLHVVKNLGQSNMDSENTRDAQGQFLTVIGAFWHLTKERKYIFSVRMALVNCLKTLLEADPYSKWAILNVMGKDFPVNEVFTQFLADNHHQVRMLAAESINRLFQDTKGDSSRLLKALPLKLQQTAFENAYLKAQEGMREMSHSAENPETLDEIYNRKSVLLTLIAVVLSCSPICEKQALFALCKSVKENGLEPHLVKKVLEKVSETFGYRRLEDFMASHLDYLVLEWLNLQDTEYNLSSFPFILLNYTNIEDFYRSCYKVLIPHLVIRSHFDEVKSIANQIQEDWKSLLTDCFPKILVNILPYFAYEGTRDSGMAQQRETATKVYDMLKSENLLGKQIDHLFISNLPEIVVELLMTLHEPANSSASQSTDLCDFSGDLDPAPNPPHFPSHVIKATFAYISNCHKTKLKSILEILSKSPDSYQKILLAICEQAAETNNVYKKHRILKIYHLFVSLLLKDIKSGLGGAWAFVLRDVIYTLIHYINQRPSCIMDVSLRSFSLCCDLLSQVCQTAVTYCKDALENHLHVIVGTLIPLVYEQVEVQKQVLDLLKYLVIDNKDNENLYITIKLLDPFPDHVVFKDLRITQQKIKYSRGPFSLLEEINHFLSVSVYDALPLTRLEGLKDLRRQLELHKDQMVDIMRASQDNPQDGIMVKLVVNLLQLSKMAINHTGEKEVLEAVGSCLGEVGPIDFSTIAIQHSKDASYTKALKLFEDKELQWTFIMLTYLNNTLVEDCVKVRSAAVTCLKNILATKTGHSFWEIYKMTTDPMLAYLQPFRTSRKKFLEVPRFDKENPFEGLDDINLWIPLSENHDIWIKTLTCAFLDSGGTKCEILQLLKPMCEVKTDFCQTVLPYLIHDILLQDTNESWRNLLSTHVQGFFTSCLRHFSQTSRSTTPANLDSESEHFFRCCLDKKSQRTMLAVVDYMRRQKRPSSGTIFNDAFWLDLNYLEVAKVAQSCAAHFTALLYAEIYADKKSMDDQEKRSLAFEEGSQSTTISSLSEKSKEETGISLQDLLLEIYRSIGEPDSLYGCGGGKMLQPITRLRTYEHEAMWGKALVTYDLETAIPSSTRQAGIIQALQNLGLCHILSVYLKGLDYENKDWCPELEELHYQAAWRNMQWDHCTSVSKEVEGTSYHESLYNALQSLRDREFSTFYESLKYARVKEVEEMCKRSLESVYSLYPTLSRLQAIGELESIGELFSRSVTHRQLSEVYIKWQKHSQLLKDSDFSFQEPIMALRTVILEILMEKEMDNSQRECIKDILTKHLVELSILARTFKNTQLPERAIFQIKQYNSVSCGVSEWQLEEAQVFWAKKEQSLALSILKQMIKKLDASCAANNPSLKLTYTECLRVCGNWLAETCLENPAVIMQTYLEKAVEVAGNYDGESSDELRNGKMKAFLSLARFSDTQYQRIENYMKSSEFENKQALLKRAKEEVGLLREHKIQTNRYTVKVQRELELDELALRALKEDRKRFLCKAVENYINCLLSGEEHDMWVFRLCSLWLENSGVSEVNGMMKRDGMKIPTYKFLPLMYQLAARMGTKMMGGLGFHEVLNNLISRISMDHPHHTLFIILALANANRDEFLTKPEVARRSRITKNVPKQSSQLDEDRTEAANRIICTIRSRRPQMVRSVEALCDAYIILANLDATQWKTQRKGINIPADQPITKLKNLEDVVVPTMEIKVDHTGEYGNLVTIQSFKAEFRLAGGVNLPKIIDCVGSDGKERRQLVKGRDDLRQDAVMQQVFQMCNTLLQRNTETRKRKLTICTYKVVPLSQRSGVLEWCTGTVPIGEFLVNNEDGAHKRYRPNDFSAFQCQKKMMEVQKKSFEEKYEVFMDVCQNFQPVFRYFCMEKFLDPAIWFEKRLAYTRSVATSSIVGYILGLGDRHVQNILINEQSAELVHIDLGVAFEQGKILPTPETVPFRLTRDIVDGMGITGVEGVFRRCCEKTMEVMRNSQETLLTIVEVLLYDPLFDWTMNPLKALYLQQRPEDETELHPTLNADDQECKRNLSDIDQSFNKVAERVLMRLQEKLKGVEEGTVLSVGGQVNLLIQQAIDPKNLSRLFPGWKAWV

What is called pIC50 is the IC50 on a negative log10 scale, so that one unit is a factor of ten. For `O=c1cc(N2CCOCC2)nc2c3ccccc3ccn12` [Compound 5, 2-morpholin-1-yl-pyrimido-[2,1-a]isoquinolin-4-one], the “Δ(DNA-PK/PI 3-K)” value in data set [1] was over 143. The figures for the pIC50 in data set [2], in data set [5] (setting [9]) and in data set [5] (setting [10]) were under 4.00, over 6.00 and 6.46, respectively. In addition, the “Δ(DNA-PK/ATM)” value in [3] is over 286. In data set [4], the “Enhancement Ratio (ER)” value was found to be 1.63.
A word on the melting point: it is the temperature of the solid-liquid transition. Turning to `O=c1cc(-c2ccc(F)cc2)oc(N2CCOCC2)c1` [Compound 292, 6-(4-fluorophenyl)-2-(morpholin-4-yl)pyran-4-one], the melting point fell in the range of 216 to 217 °C. Further, the “Δ(DNA-PK/PI 3-K)” value in [1] amounted to 52. Moreover, the pIC50 in data set [6] was 4.89. The compound also gave a pIC50 in data set [2] of under 4.00. For the same compound, in data set [3], the “Δ(DNA-PK/ATM)” value is over 400.
On to `O=c1cc(N2CCOCC2)oc2c1ccc1ccccc12` [Compound 293, 2-(morpholin-4-yl)-benzo[h]chromen-4-one], for which, in data set [1], the “Δ(DNA-PK/PI 3-K)” value was 50. Besides, the negative-log IC50 (pIC50) was 4.70 in data set [6], under 4.00 in data set [2], over 6.00 in data set [5] (setting [9]) and 6.40 in data set [5] (setting [10]). For the same compound, in data set [3], the “Δ(DNA-PK/ATM)” value is over 250. Moreover, in [4], the “Enhancement Ratio (ER)” value is listed as 1.7.
In turn, `O=c1cc(N2CCSCC2)oc2c1ccc1ccccc12` [Compound 296, 2-(thiomorpholin-4-yl)-benzo[h]chromen-4-one] showed a melting point of 171 to 173 °C. Besides, the “Δ(DNA-PK/PI 3-K)” value in data set [1] stood at 5. The same compound showed a pIC50 in data set [6] of 5.22. The compound also had a pIC50 in data set [2] of under 4.00. Moreover, the “Δ(DNA-PK/ATM)” value in data set [3] is reported as over 83. Moreover, the pIC50 in data set [5] (setting [10]) was 5.92.
As for `O=c1cc(N2CCOCC2)oc2cc3ccccc3cc12` [Compound 301, 2-(morpholin-4-yl)-benzo[g]chromen-4-one], the melting point turned out to be 219 °C. In [1], the “Δ(DNA-PK/PI 3-K)” value came out at 40. Besides, the pIC50 in data set [6] was 4.80. This compound had a negative-log IC50 (pIC50) in data set [2] of under 4.30. Besides, the “Δ(DNA-PK/ATM)” value in data set [3] was over 125. Also, in [5] (setting [9]), the negative-log IC50 (pIC50) is over 6.00. Further, in [5] (setting [10]), the pIC50 is 6.40.
As to `O=c1cc(N2CCOCC2)oc2cc(OCc3ccccc3)ccc12` [Compound 337, 7-Benzyloxy-2-morpholin-4-yl-chromen-4-one], the results for the pIC50 in data set [2], in data set [5] (setting [9]) and in data set [5] (setting [10]) were under 4.00, over 6.00 and 6.19, respectively. Further, the “Δ(DNA-PK/ATM)” value in [3] is over 154. The “Enhancement Ratio (ER)” value in data set [4] is reported as 1.12.
As for `O=c1cc(N2CCOCC2)oc2cc(OCc3ccc(F)cc3)ccc12` [Compound 414, 7-(4-Fluoro-benzyloxy)-2-morpholin-4-yl-chromen-4-one], the pIC50 in data set [6] was 4.02; in data set [2], under 4.00; in [5] (setting [10]), 5.82. The “Enhancement Ratio (ER)” value in data set [4] was determined as 1.69.
For the compound `O=c1cc(N2CCOCC2)oc2cc(OCc3ccc(Cl)cc3)ccc12` [Compound 415, 7-(4-chlorobenzyloxy)-2-(morpholin-4-yl)-chromen-4-one], the “Δ(DNA-PK/PI 3-K)” value in data set [1] was over 200. Also, the pIC50 in [6] is under 4.00; in [2] it was under 4.00; in data set [5] (setting [9]), over 6.00; in data set [5] (setting [10]) it was 6.30. The “Δ(DNA-PK/ATM)” value in data set [3] is listed as over 200. The “Enhancement Ratio (ER)” value in data set [4] is recorded as 1.86.
Consider `O=c1cc(N2CCOCC2)oc2cc(OCc3ccc(Br)cc3)ccc12` [Compound 416, 7-(4-Bromobenzyloxy)-2-morpholin-4-yl-chromen-4-one], for which the melting point fell in the range of 221 to 222 °C. This compound gave a pIC50 in [2] of under 4.00. In addition, the “Δ(DNA-PK/ATM)” value in data set [3] is over 167. The “Enhancement Ratio (ER)” value in data set [4] is given as 1.32. Further, the pIC50 in data set [5] (setting [9]) was over 6.00. The pIC50 in data set [5] (setting [10]) is 6.22.
In the case of `O=c1cc(N2CCOCC2)oc2c(-c3ccccc3)cccc12` [LY294002], in [7], the “sensitisation of cells to the effects of IR” value is on record as “weakly sensitise”. Besides, in [8], the pIC50 was about 6.00.
